The supplement of paper PMC12350171

What was measured:
Bacteroides fragilis NT = experiment: IC25 growth inhibition; higher = less potent
Outline: (§1)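 Under anaerobic conditions, OD578 was read hourly in a plate reader for at least three biological replicates of monocultures grown overnight in mGAM. Each culture started at an OD578 of 0.01 in pre-reduced plates holding twofold drug dilutions and 1% DMSO (or water). IC25 was reported as a tested interval: the lowest concentration where the monotonic median area under the growth curve dropped below the cutoff. That cutoff was 0.75.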

[1] = tested on: Bacteroides thetaiotaomicron; experiment: IC25 growth inhibition; higher = less potent
Outline: as §1

Bacteroides uniformis = experiment: IC25 growth inhibition; higher = less potent
Outline: as §1

Bacteroides vulgatus = experiment: IC25 growth inhibition; higher = less potent
Outline: as §1

Clostridium bolteae = experiment: IC25 growth inhibition; higher = less potent
Outline: as §1

Clostridium perfringens = experiment: IC25 growth inhibition; higher = less potent
Outline: as §1

Clostridium ramosum = experiment: IC25 growth inhibition; higher = less potent
Outline: as §1

[2] = tested on: Clostridium saccharolyticum; experiment: IC25 growth inhibition; higher = less potent
Outline: as §1

Collinsella aerofaciens = experiment: IC25 growth inhibition; higher = less potent
Outline: as §1

Coprococcus comes = experiment: IC25 growth inhibition; higher = less potent
Outline: as §1

Dorea formicigenerans = experiment: IC25 growth inhibition; higher = less potent
Outline: as §1

Escherichia coli ED1a = experiment: IC25 growth inhibition; higher = less potent
Outline: as §1

Eubacterium rectale = experiment: IC25 growth inhibition; higher = less potent
Outline: as §1

[3] = tested on: Fusobacterium nucleatum subsp. Nucleatum; experiment: IC25 growth inhibition; higher = less potent
Outline: as §1

Parabacteroides merdae = experiment: IC25 growth inhibition; higher = less potent
Outline: as §1

Roseburia intestinalis = experiment: IC25 growth inhibition; higher = less potent
Outline: as §1

Ruminococcus gnavus = experiment: IC25 growth inhibition; higher = less potent
Outline: as §1

[4] = tested on: Salmonella enterica typhimurium; experiment: IC25 growth inhibition; higher = less potent
Outline: as §1

Shigella flexneri = experiment: IC25 growth inhibition; higher = less potent
Outline: as §1

[5] = tested on: Streptococcus parasanguinis; experiment: IC25 growth inhibition; higher = less potent
Outline: as §1

Streptococcus salivarius = experiment: IC25 growth inhibition; higher = less potent
Outline: as §1

Vibrio cholerae = experiment: IC25 growth inhibition; higher = less potent
Outline: as §1

[6] = tested on: Yersinia enterocolitica WA-314; experiment: IC25 growth inhibition; higher = less potent
Outline: as §1

[7] = tested on: Yersinia pseudotuberculosis; experiment: IC25 growth inhibition; higher = less potent
Outline: as §1

[8] = tested on: Com21 synthetic gut community; experiment: community biomass OD578 after 24 h drug treatment relative to untreated (fraction of untreated control); higher = more community growth; conditions: community: Com21 (Com20 + E. coli ED1a)
Method: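 Com21 (Com20 plus E. coli ED1a) was treated with drug for 24 h under anaerobic conditions in mGAM. Community OD578 was then measured and normalised to untreated Com21; mean of 3 biological replicates.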

[9] = drug pretreatment concentration 10 µM
[10] = drug pretreatment concentration 20 µM
[11] = drug pretreatment concentration 40 µM
[12] = drug pretreatment concentration 80 µM
[13] = drug pretreatment concentration 160 µM
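For IC25 growth inhibition in this document: lowest concentration where monotonic median growth AUC falls below 0.75 of drug-free control.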

| Structure (SMILES) | IC25 growth inhibition (Bacteroides fragilis NT) [µM] | IC25 growth inhibition [1] [µM] | IC25 growth inhibition (Bacteroides uniformis) [µM] | IC25 growth inhibition (Bacteroides vulgatus) [µM] | IC25 growth inhibition (Clostridium bolteae) [µM] | IC25 growth inhibition (Clostridium perfringens) [µM] | IC25 growth inhibition (Clostridium ramosum) [µM] | IC25 growth inhibition [2] [µM] | IC25 growth inhibition (Collinsella aerofaciens) [µM] | IC25 growth inhibition (Coprococcus comes) [µM] | IC25 growth inhibition (Dorea formicigenerans) [µM] | IC25 growth inhibition (Escherichia coli ED1a) [µM] | IC25 growth inhibition (Eubacterium rectale) [µM] | IC25 growth inhibition [3] [µM] | IC25 growth inhibition (Parabacteroides merdae) [µM] | IC25 growth inhibition (Roseburia intestinalis) [µM] | IC25 growth inhibition (Ruminococcus gnavus) [µM] | IC25 growth inhibition [4] [µM] | IC25 growth inhibition (Shigella flexneri) [µM] | IC25 growth inhibition [5] [µM] | IC25 growth inhibition (Streptococcus salivarius) [µM] | IC25 growth inhibition (Vibrio cholerae) [µM] | IC25 growth inhibition [6] [µM] | IC25 growth inhibition [7] [µM] | community biomass OD578 [8, 9] | community biomass OD578 [8, 10] | community biomass OD578 [8, 11] | community biomass OD578 [8, 12] | community biomass OD578 [8, 13] | community biomass OD578 ([8]; drug pretreatment concentration 2.5 µM) | community biomass OD578 ([8]; drug pretreatment concentration 5 µM) |
| --- | --- | --- | --- | --- | --- | --- | --- | --- | --- | --- | --- | --- | --- | --- | --- | --- | --- | --- | --- | --- | --- | --- | --- | --- | --- | --- | --- | --- | --- | --- | --- |
| C[C@H]1O[C@H](O[C@H]2[C@H](O)[C@@H](O)[C@@H](O[C@H]3[C@H](O)[C@@H](O)C(O)O[C@@H]3CO)O[C@@H]2CO)[C@H](O)[C@@H](O)[C@@H]1N[C@H]1C=C(CO)[C@@H](O)[C@H](O)[C@H]1O (some centres not stated) [Acarbose] | ≤ 10 | > 160 | > 160 | ≤ 40 | > 160 | > 160 | > 160 | > 160 | > 160 | > 160 | > 160 | > 160 | ≤ 40 | > 160 | > 160 | ≤ 20 | > 160 | > 160 | > 160 | > 160 | > 160 | > 160 | > 160 | > 160 | 1.03 | 1.01 | 1 | 1 | 0.989 |  |  |
| C[C@@H](O[C@H]1OCCN(Cc2n[nH]c(=O)[nH]2)[C@H]1c1ccc(F)cc1)c1cc(C(F)(F)F)cc(C(F)(F)F)c1 [Aprepitant] | > 160 | > 160 | > 160 | > 160 | > 160 | > 160 | > 160 | > 160 | > 80 | > 160 | > 160 | > 160 | > 160 | > 160 | > 160 | > 160 | > 160 | > 160 | > 160 | > 160 | > 160 | > 160 | > 160 | > 80 | 1 | 0.981 | 0.788 | 1.03 | 1.01 |  |  |
| CCc1oc2ccccc2c1C(=O)c1cc(Br)c(O)c(Br)c1 [Benzbromarone] | ≤ 20 | ≤ 20 | ≤ 10 | ≤ 20 | ≤ 40 | ≤ 10 | ≤ 20 | ≤ 10 | ≤ 40 | ≤ 40 | ≤ 40 | > 160 | ≤ 20 | ≤ 80 | ≤ 20 | ≤ 40 | ≤ 20 | > 160 | > 160 | ≤ 10 | ≤ 10 | ≤ 160 | > 160 | > 160 | 0.877 | 0.86 | 0.812 | 0.687 | 0.301 |  |  |
| CN(C)CCCN1c2ccccc2Sc2ccc(Cl)cc21 [Chlorpromazine] | ≤ 80 | ≤ 80 | ≤ 80 | ≤ 40 | ≤ 160 | ≤ 80 | > 160 | ≤ 80 | ≤ 160 | ≤ 160 | ≤ 40 | ≤ 160 | ≤ 40 | ≤ 80 | ≤ 40 | ≤ 80 | ≤ 40 | > 160 | ≤ 160 | ≤ 160 | ≤ 80 | ≤ 160 | > 160 | ≤ 160 | 1 | 0.983 | 0.941 | 0.927 | 0.813 |  |  |
| CN(C)CC/C=C1/c2ccccc2Sc2ccc(Cl)cc21 [Chlorprothixene] | ≤ 80 | ≤ 40 | ≤ 40 | ≤ 40 | ≤ 160 | ≤ 80 | > 160 | ≤ 80 | ≤ 160 | ≤ 160 | ≤ 40 | > 160 | ≤ 80 | ≤ 80 | ≤ 160 | ≤ 40 | ≤ 160 | > 160 | ≤ 160 | > 160 | ≤ 160 | ≤ 20 | > 160 | ≤ 160 | 0.988 | 1.02 | 0.99 | 0.965 | 0.48 |  |  |
| COCCOC(=O)C1=C(C)NC(C)=C(C(=O)OC/C=C/c2ccccc2)C1c1cccc([N+](=O)[O-])c1 (configuration not stated) [Cilnidipine] | > 10 | > 10 | > 40 | > 10 | > 10 | > 20 | > 5 | > 10 | > 10 | > 10 | > 10 | > 40 | > 10 | > 10 | > 20 | > 10 | > 20 | > 5 | > 10 | > 20 | > 10 | > 10 | > 5 | > 10 | 1.06 | 1.03 | 0.993 |  |  | 1.03 | 1 |
| CCN(CC)CCOc1ccc(C(=C(Cl)c2ccccc2)c2ccccc2)cc1 [Clomifen] | ≤ 40 | ≤ 40 | ≤ 40 | ≤ 40 | ≤ 80 | ≤ 40 | ≤ 40 | ≤ 40 | ≤ 20 | ≤ 40 | ≤ 10 | > 160 | ≤ 40 | ≤ 80 | ≤ 40 | ≤ 20 | ≤ 10 | > 160 | > 80 | ≤ 80 | ≤ 40 | ≤ 80 | > 80 | > 40 |  |  |  |  |  |  |  |
| CNCCC(Oc1ccc(C(F)(F)F)cc1)c1ccccc1 (configuration not stated) [Fluoxetine] | ≤ 160 | ≤ 160 | ≤ 80 | ≤ 80 | > 160 | ≤ 160 | > 160 | ≤ 160 | ≤ 160 | ≤ 160 | ≤ 40 | > 160 | ≤ 40 | ≤ 80 | ≤ 80 | ≤ 80 | ≤ 80 | > 160 | > 160 | > 160 | ≤ 80 | ≤ 160 | ≤ 160 | ≤ 160 |  |  |  |  |  |  |  |
